From PubChem BioAssay AID651771 (Broad Institute, 2012)
Where “and” joins values, the source holds several entries; their conditions need not be identical. Identical values can stand only once. Results filed as inconclusive are left out.

Tested on: SK-MEL-5 DCT mRNA qPCR, delta-delta-Ct, overnight
Assay: suppression of MITF target gene DCT mRNA, dose response, orthogonal assay for MITF inhibitor project, cell-based, SK-MEL-5, RT-qPCR, dry powder samples (AID 651771)

SMILES	AC40
NC1=C(NS(=O)(=O)c2ccccc2)C(=O)c2ccccc2C1=O	3.02 µM
CCN1CCN(C2=C(NC(=O)c3ccccc3)C(=O)c3ccccc3C2=O)CC1	0.884 µM
NC1=C(NS(=O)(=O)c2cccs2)C(=O)c2ccccc2C1=O	2.01 µM
O=C1C=C(NS(=O)(=O)c2cccs2)C(=O)c2ccccc21	4.64 µM
CC(C)N1CCN(C2=C(Nc3ccc(F)cc3F)C(=O)c3ccccc3C2=O)CC1	3.67 µM
CCN1CCN(C2=C(NS(=O)(=O)c3ccc(Br)cc3)C(=O)c3ccccc3C2=O)CC1	3.38 µM
O=C1C=C(Nc2ccc([N+](=O)[O-])c(C(F)(F)F)c2)C(=O)c2ccccc21	1.05 µM
NS(=O)(=O)c1ccc(NC2=CC(=O)c3ccccc3C2=O)cc1	0.0555 µM
CN1CCN(C2=C(NS(=O)(=O)c3ccc(Br)s3)C(=O)c3ccccc3C2=O)CC1	1.68 µM
COc1ccc(NC2=C(N3CCCCC3)C(=O)c3ccccc3C2=O)cc1	12.8 µM
O=C1C(Nc2ccc(Cl)cc2)=C(N2CCCC2)C(=O)c2ccccc21	9.53 µM
CC(C)N1CCN(C2=C(Nc3ccc(F)cc3)C(=O)c3ccccc3C2=O)CC1	2.9 µM
O=C1C(Nc2ccc(Br)cc2)=C(N2CCCCC2)C(=O)c2ccccc21	12.6 µM
Cc1nc2ccccc2n1/N=C/c1ccc([N+](=O)[O-])s1	1.54 µM
O=C(NC1=C(Cl)C(=O)c2ccccc2C1=O)c1ccccc1	0.336 µM
COC1=C(NS(=O)(=O)c2ccc(Br)cc2)C(=O)c2ccccc2C1=O	8.65 µM
O=C1C=C(NS(=O)(=O)c2ccc(Br)cc2)C(=O)c2ccccc21	7.25 µM
O=C1C=C(NS(=O)(=O)c2ccccc2)C(=O)c2ccccc21	4.06 µM
COC1=C(Nc2ccccc2)C(=O)c2ccccc2C1=O	0.838 µM
NC1=C(NC(=O)c2ccccc2)C(=O)c2ccccc2C1=O	1.73 µM
Cc1ccc(NC2=CC(=O)c3ccccc3C2=O)cc1	0.277 µM
COC1=C(NS(=O)(=O)c2cccs2)C(=O)c2ccccc2C1=O	9.01 µM
O=C1C(Nc2ccccc2)=C(c2ccccc2)C(=O)c2ccccc21	10.4 µM
NC1=C(NS(=O)(=O)c2ccc(Br)cc2)C(=O)c2ccccc2C1=O	12.8 µM
O=C1C=C(Nc2ccccc2)C(=O)c2ccccc21	0.302 µM and 0.325 µM
CCN1CCN(C2=C(Nc3ccc(F)cc3F)C(=O)c3ccccc3C2=O)CC1	4.78 µM
NC1=CC(=O)c2ccccc2C1=O	0.966 µM
C=CCNC1=C(Cl)C(=O)c2ccccc2C1=O	1 µM
